The values below are quoted from earlier work in patent US20050004194A1, “Use of organic compounds” (priority 2003, published 2005).

For series [1] the following is noted: elderly heart failure patients, losartan versus captopril 50 mg t.i.d.
For series [2] the following is noted: SAVE trial, patients after MI, captopril versus placebo.

`CCCCc1nc(Cl)c(CO)n1Cc1ccc(-c2ccccc2-c2nn[nH]n2)cc1` [losartan]: the “primary objective: tolerability and increase in serum creatinine” value in series [1] is given as “no significant differences”. For the same compound, the all-cause mortality result in series [1] (722 patients, based on only 49 deaths) was “statistically significant reduction”. For the compound `C[C@H](CS)C(=O)N1CCC[C@H]1C(=O)O` [captopril], in series [2], the left ventricular remodeling result was “improvement”.
